Experimental data from ChEMBL document CHEMBL1124723, “Selective inhibition of gamma-aminobutyric acid aminotransferase by (3R,4R),(3S,4S)- and (3R,4S),(3S,4R)-4-amino-5-fluoro-3-phenylpentanoic acids” (J Med Chem, 1990).

Columns and labels:
[1] = Binding affinity against L-glutamate decarboxylase in pig brain; type: tissue-based, Sus scrofa
[2] = target: 4-aminobutyrate aminotransferase, mitochondrial (Sus scrofa, UniProt P80147); assay: Binding affinity against Gamma-amino-N-butyrate transaminase in pig brain; type: tissue-based
Sequence of 4-aminobutyrate aminotransferase, mitochondrial (P80147 whole entry): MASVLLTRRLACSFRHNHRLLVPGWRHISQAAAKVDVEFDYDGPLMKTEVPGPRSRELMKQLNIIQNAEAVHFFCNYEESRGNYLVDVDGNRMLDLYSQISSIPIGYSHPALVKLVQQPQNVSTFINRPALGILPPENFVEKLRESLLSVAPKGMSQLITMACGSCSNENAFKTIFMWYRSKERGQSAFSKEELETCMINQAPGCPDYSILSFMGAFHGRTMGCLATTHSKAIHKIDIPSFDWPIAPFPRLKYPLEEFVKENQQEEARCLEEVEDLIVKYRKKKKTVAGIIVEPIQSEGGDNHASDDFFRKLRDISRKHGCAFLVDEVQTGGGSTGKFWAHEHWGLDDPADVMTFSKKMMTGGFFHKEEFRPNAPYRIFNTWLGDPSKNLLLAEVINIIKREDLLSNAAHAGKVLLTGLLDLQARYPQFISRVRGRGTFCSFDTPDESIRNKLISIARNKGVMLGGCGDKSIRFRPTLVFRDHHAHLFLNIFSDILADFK

NC(CF)CCC(=O)O (stereo not drawn)
Ki [1]: 0.071 mM

N[C@@H](CF)[C@@H](CC(=O)O)c1ccccc1
Ki [2]: 8 mM

N[C@H](CF)[C@@H](CC(=O)O)c1ccccc1
Ki [2]: 1 mM
